In patent US7981903B2, “2-[2-{phenylamino}-1H-pyrrolo[2,3-D]pyrimidin-4-yl)amino] benzamide derivatives as IGF-1R inhibitors for the treatment of cancer” (GlaxoSmithKline LLC, priority 2007, dated 2011):

Assays:
human IR (hIR) = target: T1, human IR (hIR) (Homo sapiens, UniProt P06213); assay: TR-FRET kinase assay of purified hIR; format: biochemical; conditions: activated hIR 0.5 nM, 10 μM ATP, values given as pIC50 category
T1 construct: containing amino acid residues 979-1382 of human IR; made in house; host or cells: Sf9 cells (baculovirus), same process as hIGF1R
T1 sequence (P06213 979-1382): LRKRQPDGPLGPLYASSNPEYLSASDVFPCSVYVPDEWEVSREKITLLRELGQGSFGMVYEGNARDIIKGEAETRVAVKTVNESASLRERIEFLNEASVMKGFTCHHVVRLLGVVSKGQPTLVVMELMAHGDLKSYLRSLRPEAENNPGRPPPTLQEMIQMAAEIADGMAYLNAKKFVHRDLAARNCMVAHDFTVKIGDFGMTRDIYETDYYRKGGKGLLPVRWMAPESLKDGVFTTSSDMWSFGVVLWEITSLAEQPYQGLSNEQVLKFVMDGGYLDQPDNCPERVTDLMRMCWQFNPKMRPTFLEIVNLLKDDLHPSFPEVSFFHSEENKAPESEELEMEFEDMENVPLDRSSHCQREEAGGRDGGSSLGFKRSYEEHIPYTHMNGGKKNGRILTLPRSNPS

human IGF1R (hIGF1R) = target: T2, human IGF1R (hIGF1R) (Homo sapiens, UniProt P08069); assay: TR-FRET kinase assay of purified hIGF1R; format: biochemical; conditions: activated hIGF1R 0.5 nM, 10 μM ATP, values given as pIC50 category, read-out: IGF-1R pIC50 (converted)
T2 construct: containing amino acid residues 957-1367 of human IGF1R; made in house; host or cells: Sf9 cells (baculovirus)
T2 sequence (P08069 957-1367): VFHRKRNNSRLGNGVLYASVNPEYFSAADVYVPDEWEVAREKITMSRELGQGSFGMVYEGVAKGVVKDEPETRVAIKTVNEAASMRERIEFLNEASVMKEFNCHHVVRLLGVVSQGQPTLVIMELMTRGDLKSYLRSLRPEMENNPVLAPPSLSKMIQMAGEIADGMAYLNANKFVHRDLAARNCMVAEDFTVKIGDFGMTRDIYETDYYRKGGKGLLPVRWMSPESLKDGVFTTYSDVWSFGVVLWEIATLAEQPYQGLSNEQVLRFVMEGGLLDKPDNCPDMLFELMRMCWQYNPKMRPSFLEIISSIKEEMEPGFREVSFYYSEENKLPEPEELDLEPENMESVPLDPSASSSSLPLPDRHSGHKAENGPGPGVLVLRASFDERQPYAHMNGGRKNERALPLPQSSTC

[1] = target: T3, NIH-3T3 cells overexpressing human IGF-1R (Homo sapiens, UniProt P08069); assay: IGF-1R cellular autophosphorylation (DELFIA); format: cell-based
T3 construct: expressed in transfected cells; host or cells: NIH-3T3 (mouse fibroblasts)
T3 sequence (P08069 31-1367): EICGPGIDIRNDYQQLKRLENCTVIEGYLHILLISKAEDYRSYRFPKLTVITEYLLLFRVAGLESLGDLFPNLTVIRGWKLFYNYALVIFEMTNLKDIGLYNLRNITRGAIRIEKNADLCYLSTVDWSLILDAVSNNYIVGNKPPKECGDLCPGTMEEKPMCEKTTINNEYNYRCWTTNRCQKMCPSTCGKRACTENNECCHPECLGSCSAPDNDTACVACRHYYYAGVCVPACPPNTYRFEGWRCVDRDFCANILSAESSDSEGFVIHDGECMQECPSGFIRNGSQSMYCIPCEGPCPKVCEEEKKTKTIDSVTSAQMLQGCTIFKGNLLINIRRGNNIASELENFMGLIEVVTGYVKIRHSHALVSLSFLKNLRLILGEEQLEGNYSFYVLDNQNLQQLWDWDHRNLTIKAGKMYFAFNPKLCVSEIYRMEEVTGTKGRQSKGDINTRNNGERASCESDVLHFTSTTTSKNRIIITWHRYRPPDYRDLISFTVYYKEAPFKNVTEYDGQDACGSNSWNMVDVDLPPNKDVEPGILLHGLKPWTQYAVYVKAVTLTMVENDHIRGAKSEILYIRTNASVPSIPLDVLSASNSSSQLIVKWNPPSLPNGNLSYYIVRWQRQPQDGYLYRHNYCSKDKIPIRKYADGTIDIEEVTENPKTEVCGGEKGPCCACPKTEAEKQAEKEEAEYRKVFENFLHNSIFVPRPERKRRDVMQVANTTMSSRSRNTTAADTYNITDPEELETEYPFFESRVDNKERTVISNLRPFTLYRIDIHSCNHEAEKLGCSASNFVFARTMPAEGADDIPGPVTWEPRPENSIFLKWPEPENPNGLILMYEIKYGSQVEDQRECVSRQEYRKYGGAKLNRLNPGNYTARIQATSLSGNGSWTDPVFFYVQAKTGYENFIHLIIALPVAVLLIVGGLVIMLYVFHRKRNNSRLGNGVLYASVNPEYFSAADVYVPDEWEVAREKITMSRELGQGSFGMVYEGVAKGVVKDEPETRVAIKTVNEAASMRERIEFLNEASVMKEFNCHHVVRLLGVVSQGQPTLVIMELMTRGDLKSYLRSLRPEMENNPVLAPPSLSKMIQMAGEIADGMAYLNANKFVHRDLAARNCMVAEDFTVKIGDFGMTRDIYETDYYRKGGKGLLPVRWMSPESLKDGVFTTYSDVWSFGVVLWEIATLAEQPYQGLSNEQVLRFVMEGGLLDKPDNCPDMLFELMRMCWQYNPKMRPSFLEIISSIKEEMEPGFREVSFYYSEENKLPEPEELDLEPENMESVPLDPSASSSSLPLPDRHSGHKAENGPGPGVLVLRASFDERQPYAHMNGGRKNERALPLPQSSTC
Summary of the method: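 Receptor autophosphorylation measured by DELFIA, capturing IGF-1R or IRβ and detecting with europium anti-pTyr, reported as percent of IGF-1- or insulin-stimulated signal. Compounds (30 uM to 1.5 nM) added 2 h before ligand, then 15 min stimulation (IGF-1 30 ng/ml or insulin 3 ug/ml).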

SMILES	IC50 (human IR (hIR)) [nM]	IC50 (human IGF1R (hIGF1R)) [nM]	IC50 [1] [nM]
COc1cc(N2CCOC[C@@H]2C)ccc1Nc1nc(Nc2cc(F)ccc2C(N)=O)c2cc[nH]c2n1 [Example 84, 4-fluoro-2-[(2-{[4-[(3S)-3-methyl-4-morpholinyl]-2-(methyloxy)phenyl]amino}-1H-pyrrolo[2,3-d]pyrimidin-4-yl)amino]benzamide]	0.251 to 1	0.251 to 1	< 100
COc1cc2c(cc1Nc1nc(Nc3cccc(F)c3C(N)=O)c3cc[nH]c3n1)N(CCN(C)C)CC2 [Example 117, 2-[(2-{[1-[2-(dimethylamino)ethyl]-5-(methyloxy)-2,3-dihydro-1H-indol-6-yl]amino}-1H-pyrrolo[2,3-d]pyrimidin-4-yl)amino]-6-fluorobenzamide]	5.01 to 158	5.01 to 200	> 500
COc1cc2c(cc1Nc1nc(Nc3cc(Cl)cc(F)c3C(N)=O)c3cc[nH]c3n1)N(C(=O)CN(C)C)CC2 [Example 119, 4-chloro-2-[(2-{[1-(N,N-dimethylglycyl)-5-(methyloxy)-2,3-dihydro-1H-indol-6-yl]amino}-1H-pyrrolo[2,3-d]pyrimidin-4-yl)amino]-6-fluorobenzamide]	0.251 to 1	0.251 to 1	< 100
CCCN1CCC(c2ccc(Nc3nc(Nc4cc(F)cc(F)c4C(N)=O)c4cc[nH]c4n3)c(OC)c2)CC1 [Example 92, 2,4-difluoro-6-[(2-{[2-(methyloxy)-4-(1-propyl-4-piperidinyl)phenyl]amino}-1H-pyrrolo[2,3-d]pyrimidin-4-yl)amino]benzamide]	0.251 to 1	0.251 to 1	< 100
COc1cc(N2CCN(C(C)C)CC2)c(C)cc1Nc1nc(Nc2cc(F)cc(F)c2C(N)=O)c2cc[nH]c2n1 [Example 91, 2,4-difluoro-6-[(2-{[5-methyl-4-[4-(1-methylethyl)-1-piperazinyl]-2-(methyloxy)phenyl]amino}-1H-pyrrolo[2,3-d]pyrimidin-4-yl)amino]benzamide]	1.26 to 3.98	0.251 to 1	< 100
COc1cc2c(cc1Nc1nc(Nc3cccc(F)c3C(N)=O)c3cc[nH]c3n1)N(C(=O)CCN(C)C)CC2 [Example 118, 2-[(2-{[1-(N,N-dimethyl-b-alanyl)-5-(methyloxy)-2,3-dihydro-1H-indol-6-yl]amino}-1H-pyrrolo[2,3-d]pyrimidin-4-yl)amino]-6-fluorobenzamide]	5.01 to 158	5.01 to 200	100 to 500
COc1ccc(NC(=O)CN(C)C)cc1Nc1nc(Nc2ccccc2C(N)=O)c2cc[nH]c2n1 [Example 15, 2-[(2-{[5-[(N,N-dimethylglycyl)amino]-2-(methyloxy)phenyl]amino}-1H-pyrrolo[2,3-d]pyrimidin-4-yl)amino]benzamide]	0.251 to 1	0.251 to 1	< 100
CCCN1CCC(N2CCc3cc(OC)c(Nc4nc(Nc5cccc(F)c5C(N)=O)c5cc[nH]c5n4)cc3C2)CC1 [Example 122, 2-fluoro-6-[(2-{[6-(methyloxy)-2-(1-propyl-4-piperidinyl)-1,2,3,4-tetrahydro-7-isoquinolinyl]amino}-1H-pyrrolo[2,3-d]pyrimidin-4-yl)amino]benzamide]	1.26 to 3.98	5.01 to 200	100 to 500
COc1cc2c(cc1Nc1nc(Nc3cccc(F)c3C(N)=O)c3cc[nH]c3n1)N(C(=O)CN(C)C)CC2 [Example 53, 2-[(2-{[1-(N,N-dimethylglycyl)-5-(methyloxy)-2,3-dihydro-1H-indol-6-yl]amino}-1H-pyrrolo[2,3-d]pyrimidin-4-yl)amino]-6-fluorobenzamide]		0.251 to 1	< 100

The next lines start with the values.

IC50 (human IR (hIR)) [nM]	IC50 (human IGF1R (hIGF1R)) [nM]	IC50 [1] [nM]	SMILES
5.01 to 158	5.01 to 200	100 to 500	COc1cc2c(cc1Nc1nc(Nc3cccc(F)c3C(N)=O)c3cc[nH]c3n1)N(C(=O)CN1CCN(C(C)C)CC1)CC2 [Example 186, 2-fluoro-6-[(2-{[1-{[4-(1-methylethyl)-1-piperazinyl]acetyl}-5-(methyloxy)-2,3-dihydro-1H-indol-6-yl]amino}-1H-pyrrolo[2,3-d]pyrimidin-4-yl)amino]benzamide]
1.26 to 3.98	5.01 to 200	100 to 500	COc1cc2c(cc1Nc1nc(Nc3cccc(F)c3C(N)=O)c3cc[nH]c3n1)N(C(=O)[C@@H]1CCCN1C)CC2 [Example 147, 2-fluoro-6-[(2-{[5-(methyloxy)-1-(1-methyl-L-prolyl)-2,3-dihydro-1H-indol-6-yl]amino}-1H-pyrrolo[2,3-d]pyrimidin-4-yl)amino]benzamide]
1.26 to 3.98	5.01 to 200	100 to 500	COc1cc(OCCN2CCN(C)CC2)ccc1Nc1nc(Nc2cccc(F)c2C(N)=O)c2cc[nH]c2n1 [Example 203, 2-fluoro-6-({2-[(2-(methyloxy)-4-{[2-(4-methyl-1-piperazinyl)ethyl]oxy}phenyl)amino]-1H-pyrrolo[2,3-d]pyrimidin-4-yl}amino)benzamide]
5.01 to 158	5.01 to 200	100 to 500	COc1cc2c(cc1Nc1nc(Nc3cccc(F)c3C(N)=O)c3cc[nH]c3n1)N(C(=O)CCN1CCOCC1)CC2 [Example 187, 2-fluoro-6-{[2-({5-(methyloxy)-1-[3-(4-morpholinyl)propanoyl]-2,3-dihydro-1H-indol-6-yl}amino)-1H-pyrrolo[2,3-d]pyrimidin-4-yl]amino}benzamide]
5.01 to 158	5.01 to 200	100 to 500	COc1cc2c(cc1Nc1nc(Nc3cccc(F)c3C(N)=O)c3cc[nH]c3n1)N(C(=O)CCN(C)C)CCC2 [Example 214, 2-[(2-{[1-(N,N-dimethyl-β-alanyl)-6-(methyloxy)-1,2,3,4-tetrahydro-7-quinolinyl]amino}-1H-pyrrolo[2,3-d]pyrimidin-4-yl)amino]-6-fluorobenzamide]
5.01 to 158	5.01 to 200	100 to 500	CCN(C)CC(=O)N1CCc2cc(OC)c(Nc3nc(Nc4cccc(F)c4C(=O)NC)c4cc[nH]c4n3)cc21 [Example 165, 2-[(2-{[1-(N-ethyl-N-methylglycyl)-5-(methyloxy)-2,3-dihydro-1H-indol-6-yl]amino}-1H-pyrrolo[2,3-d]pyrimidin-4-yl)amino]-6-fluoro-N-methylbenzamide]
5.01 to 158	5.01 to 200	> 500	CNC(=O)c1c(F)cccc1Nc1nc(Nc2cc3c(cc2OC)CCN3C(=O)C(C)(C)O)nc2[nH]ccc12 [Example 193, 2-fluoro-6-[(2-{[1-(2-hydroxy-2-methylpropanoyl)-5-(methyloxy)-2,3-dihydro-1H-indol-6-yl]amino}-1H-pyrrolo[2,3-d]pyrimidin-4-yl)amino]-N-methylbenzamide]
	5.01 to 200	> 500	CNC(=O)c1c(F)cccc1Nc1nc(Nc2cc3c(cc2OC)CCC(=O)N3)nc2[nH]ccc12 [Example 222, 2-fluoro-N-methyl-6-[(2-{[6-(methyloxy)-2-oxo-1,2,3,4-tetrahydro-7-quinolinyl]amino}-1H-pyrrolo[2,3-d]pyrimidin-4-yl)amino]benzamide]
	5.01 to 200	100 to 500	COc1cc2c(cc1Nc1nc(Nc3cc(F)cc(F)c3C(N)=O)c3cc[nH]c3n1)NCCC2 [Example 220, 2,4-difluoro-6-[(2-{[6-(methyloxy)-1,2,3,4-tetrahydro-7-quinolinyl]amino}-1H-pyrrolo[2,3-d]pyrimidin-4-yl)amino]benzamide]
